Measured values taken from patent US5554653A, “Inhibitors of HIV protease useful for the treatment of AIDS” (Eli Lilly and Company, priority 1992, dated 1996).

These compounds were tested against T1, HIV-1 protease (Human immunodeficiency virus type 1 group M subtype B, UniProt P04585) (assay: biochemical). Conditions: not given.
T1 construct: Purified HIV-1 protease was obtained as described above; made in house; host or cells: E. coli K12 L507/pHP10D (NRRL B-18560)
Assay type: biochemical

| Compound | Fluorescence Assay IC50 |
| --- | --- |
| [2R-(2R*,3S*,6S*)]-N-t-Butyl-2-[2-hydroxy-3-phenylmethyl-4-aza-5-oxo-6-N(trifluoromethylcarbonyl)amino-7-naphth-2-ylthio]heptyl benzamide [Example 42] | 0.74 ng/mL |

Same assay, conditions: read-out: Fluorescence Assay IC8

| IC8 | Compound |
| --- | --- |
| 1 µg/mL | CC(C)(C)NC(=O)c1ccccc1C[C@@H](O)[C@H](Cc1ccccc1)NC(=O)[C@H](Cc1ccccc1)NC=O [Example 40] |

Same assay, conditions: read-out: Fluorescence Assay IC50 (converted)

| Compound | IC50 |
| --- | --- |
| CC(C)(C)NC(=O)c1ccccc1C[C@@H](O)[C@H](Cc1ccccc1)NC(=O)[C@H](CC(N)=O)NS(=O)(=O)CCc1cccc2ccccc12 [Example 35, [2R-(2R*,3S*,6S*)]-N-t-Butyl-2-[2-hydroxy-3-phenylmethyl-4-aza-5-oxo-6-N (naphth-1-ylethylsulfonyl)amino-7-carbamoyl]heptyl benzamide] | 1.04 nM |
| CC(C)(C)NC(=O)c1ccccc1C[C@@H](O)[C@H](Cc1ccccc1)NC(=O)[C@@H](CSc1ccc(F)cc1)NC(=O)OC(C)(C)C [Example 37A, [2R-(2R*,3S*,6S*)]-N-t-Butyl-2-[2-hydroxy-3-phenylmethyl-4-aza-5-oxo-6-N(t-butoxycarbonyl)amino-7-(p-fluorophenylthio)]heptyl benzamide] | > 1570 nM |
| CC(C)(C)NC(=O)c1ccccc1C[C@@H](O)[C@H](Cc1ccccc1)NC(=O)[C@@H](C[S+]([O-])c1ccc(F)cc1)NS(C)(=O)=O (stereo partly drawn) [Example 37D, [2R-(2R*,3S*,6S*)]-N-t-Butyl-2-[2-hydroxy-3-phenylmethyl-4-aza-5-oxo-6-N(methylsulfonyl)amino-7-(p-fluorophenylsulfinyl)]heptyl benzamide] | 0.158 nM |
| Cn1nnnc1SC[C@@H](NC(=O)OC(C)(C)C)C(=O)N[C@@H](Cc1ccccc1)[C@H](O)Cc1ccccc1C(=O)NC(C)(C)C [Example 39A, [2R-(2R*,3S*,6S*)]-N-t-Butyl-2-[2-hydroxy-3-phenylmethyl-4-aza-5-oxo-6-N(t-butoxycarbonyl)amino-7-N-(methyl)tetrazolylthio]heptyl benzamide] | > 1600 nM |

Next, values leading:

| IC50 | Compound |
| --- | --- |
| 2.02 nM | CC(C)(C)NC(=O)c1ccccc1C[C@@H](O)[C@H](Cc1ccccc1)NC(=O)[C@H](CC(N)=O)NS(=O)(=O)c1ccc2ccccc2c1 [Example 34, [2R-(2R*,3S*,6S*)]-N-t-Butyl-2-[2-hydroxy-3-phenylmethyl-4-aza-5-oxo-6-N (naphth-2-ylsulfonyl)amino-7-carbamoyl]heptyl benzamide] |
| 5330 nM | CC(C)(C)NC(=O)c1ccccc1C[C@@H](O)[C@H](Cc1ccccc1)NC(=O)[C@H](N)CSc1ccc(F)cc1 [Example 37B, [2R-(2R*,3S*,6S*)]-N-t-Butyl-2-[2-hydroxy-3-phenylmethyl-4-aza-5-oxo-6-amino-7-(p-fluorophenylthio)]heptyl benzamide] |
| 1.79 nM | CC(C)(C)NC(=O)c1ccccc1C[C@@H](O)[C@H](Cc1ccccc1)NC(=O)[C@@H](CSc1ccc(F)cc1)NS(C)(=O)=O [Example 37C, [2R-(2R*,3S*,6S*)]-N-t-Butyl-2-[2-hydroxy-3-phenylmethyl-4-aza-5-oxo-6-N(methylsulfonyl)amino-7-(p-fluorophenylthio)]heptyl benzamide] |
| 14.6 nM | Cn1nnnc1SC[C@@H](NS(C)(=O)=O)C(=O)N[C@@H](Cc1ccccc1)[C@H](O)Cc1ccccc1C(=O)NC(C)(C)C [Example 39C, [2R-(2R*,3S*,6S*)]-N-t-Butyl-2-[2-hydroxy-3-phenylmethyl-4-aza-5-oxo-6-N(methylsulfonyl)amino-7-N-(methyl)tetrazolylthio)]heptyl benzamide] |
| 1.4 nM | Cn1nnnc1[S+]([O-])C[C@@H](NS(C)(=O)=O)C(=O)N[C@@H](Cc1ccccc1)[C@H](O)Cc1ccccc1C(=O)NC(C)(C)C (stereo partly drawn) [Example 39D, [2R-(2R*,3S*,6S*)]-N-t-Butyl-2-[2-hydroxy-3-phenylmethyl-4-aza-5-oxo-6-N(methylsulfonyl)amino-7-N-(methyl)tetrazolylsulfinyl)]heptyl benzamide] |

Same assay, conditions: read-out: Fluorescence Assay IC52

| IC52 | Compound |
| --- | --- |
| 0.02 µg/mL | CC(C)(C)NC(=O)c1ccccc1C[C@@H](O)[C@H](Cc1ccccc1)NC(=O)[C@H](CC(=O)OCc1ccccc1)NC(=O)C(F)(F)F [Example 41, [2R-(2R*,3S*,6S*)]-N-t-Butyl-2-[2-hydroxy-3-phenylmethyl-4-aza-5-oxo-6-N(trifluoromethylcarbonyl)amino-7-benzyloxycarbonyl]heptyl benzamide] |
